Source: patent US12594276B2, “Inhibitors of human immunodeficiency virus replication” (ViiV Healthcare UK (No.5) Limited, priority 2024, dated 2026)
pEC50: −log10 of the molar value. Read-outs that look alike come from different tables or passages of the source.

How the values were obtained:
[1] = test system: recombinant NL4-3 virus (nef section replaced with Renilla luciferase gene) in MT-2 cells; experiment: HIV cell culture assay (antiviral activity, luciferase readout); assay type: cell-based; conditions: Renilla, NL43, MT-2 cells infected for 4-5 days with recombinant NL4-3 Renilla luciferase virus
In short: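 The reporter virus was produced by transfecting 293T cells with the NL4-3 nef/Renilla luciferase proviral clone. MT-2 cells were infected for 4–5 days with serial compound dilutions present. Luciferase was read with a live-cell substrate, and EC50 came from the exponential median-effect equation.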

[2] = Compound cytotoxicity, XTT-based colorimetric assay; assay type: cell-based; conditions: human
In short: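 Uninfected MT2 cells were treated with compound under the same protocol as the antiviral assay. Viability was read on day 4 with an XTT colorimetric assay, from which CC50 values were derived.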

[3] = uninfected MT2 cells, day 4, XTT, read-out: CC50

SMILES	pEC50 [1]	CC50 at 4 days [2, 3] [pM]	CC50 at 4 days [2] [pM]
COCCCn1nc(NS(C)(=O)=O)c2c(Cl)ccc(-n3c([C@H](Cc4cc(F)cc(F)c4)NC(=O)Cn4nc(C(F)F)c5c4C(F)(F)[C@@H]4C[C@H]54)nc4nc(C5CCC(F)(F)CC5)ccc4c3=O)c21 (atropisomer, axis not shown; (P)) [Example 623, N-[(1S)-1-[(3P)-3-[4-chloro-3-methanesulfonamido-1-(3-methoxypropyl)-1H-indazol-7-yl]-7-(4,4-difluorocyclohexyl)-4-oxo-3H,4H-pyrido[2,3-d]pyrimidin-2-yl]-2-(3,5-difluorophenyl)ethyl]-2-[(2S,4R)-9-(difluoromethyl)-5,5-difluoro-7,8-diazatricyclo[4.3.0.0^2,^4]nona-1(6),8-dien-7-yl]acetamide]	10.92	> 100000	
COCCCn1nc(NS(C)(=O)=O)c2c(Cl)ccc(-n3c([C@H](Cc4cc(F)cc(F)c4)NC(=O)Cn4nc(C(F)F)c5c4C(F)(F)[C@@H]4C[C@H]54)nc4nc(C5CCC(F)(F)CC5)cc(NCC(=O)N5CCCCC5)c4c3=O)c21 (atropisomer, axis not shown; (P)) [Example 566, N-[(1S)-1-[(3P)-3-[4-chloro-3-methanesulfonamido-1-(3-methoxypropyl)-1H-indazol-7-yl]-7-(4,4-difluorocyclohexyl)-4-oxo-5-{[2-oxo-2-(piperidin-1-yl)ethyl]amino}-3H,4H-pyrido[2,3-d]pyrimidin-2-yl]-2-(3,5-difluorophenyl)ethyl]-2-[(2S,4R)-9-(difluoromethyl)-5,5-difluoro-7,8-diazatricyclo[4.3.0.0^2,^4]nona-1(6),8-dien-7-yl]acetamide]	10.10	> 20000	
CS(=O)(=O)Nc1nn(CCN2CC[C@@](F)(C(F)(F)F)C2)c2c(-n3c([C@H](Cc4cc(F)cc(F)c4)NC(=O)Cn4nc(C(F)F)c5c4C(F)(F)[C@@H]4C[C@H]54)nc4nc(C5CCC(F)(F)CC5)ccc4c3=O)ccc(Cl)c12 (atropisomer, axis not shown; (P)) [Example 42, N-[(1S)-1-[(3P)-3-(4-chloro-1-{2-[(3S)-3-fluoro-3-(trifluoromethyl)pyrrolidin-1-yl]ethyl}-3-methanesulfonamido-1H-indazol-7-yl)-7-(4,4-difluorocyclohexyl)-4-oxo-3H,4H-pyrido[2,3-d]pyrimidin-2-yl]-2-(3,5-difluorophenyl)ethyl]-2-[(2S,4R)-9-(difluoromethyl)-5,5-difluoro-7,8-diazatricyclo[4.3.0.0^2,^4]nona-1(6),8-dien-7-yl]acetamide]	10.68	> 50000	
COCCNc1cc(C2CCC(F)(F)CC2)nc2nc([C@H](Cc3cc(F)cc(F)c3)NC(=O)Cn3nc(C(F)F)c4c3C(F)(F)[C@@H]3C[C@H]43)n(-c3ccc(Cl)c4c(NS(C)(=O)=O)nn(CCN5C[C@H]6C[C@@H](C5)O6)c34)c(=O)c12 (atropisomer, axis not shown; (P)) [Example 419, N-[(1S)-1-[(3P)-3-(4-chloro-3-methanesulfonamido-1-{2-[(1R,5S)-6-oxa-3-azabicyclo[3.1.1]heptan-3-yl]ethyl}-1H-indazol-7-yl)-7-(4,4-difluorocyclohexyl)-5-[(2-methoxyethyl)amino]-4-oxo-3H,4H-pyrido[2,3-d]pyrimidin-2-yl]-2-(3,5-difluorophenyl)ethyl]-2-[(2S,4R)-9-(difluoromethyl)-5,5-difluoro-7,8-diazatricyclo[4.3.0.0^2,^4]nona-1(6),8-dien-7-yl]acetamide]	10.96		> 20000
Cc1cc(C2CCC(F)(F)CC2)nc2nc([C@H](Cc3cc(F)cc(F)c3)NC(=O)Cn3nc(C(F)F)c4c3C(F)(F)[C@@H]3C[C@H]43)n(-c3ccc(Cl)c4c(NS(C)(=O)=O)nn(CC(=O)N5C[C@H]6C[C@H]6C5)c34)c(=O)c12 (atropisomer, axis not shown; (P)) [Example 409, N-[(1S)-1-[(3P)-3-(1-{2-[(1R,5S)-3-azabicyclo[3.1.0]hexan-3-yl]-2-oxoethyl}-4-chloro-3-methanesulfonamido-1H-indazol-7-yl)-7-(4,4-difluorocyclohexyl)-5-methyl-4-oxo-3H,4H-pyrido[2,3-d]pyrimidin-2-yl]-2-(3,5-difluorophenyl)ethyl]-2-[(2S,4R)-9-(difluoromethyl)-5,5-difluoro-7,8-diazatricyclo[4.3.0.0^2,^4]nona-1(6),8-dien-7-yl]acetamide]	10.85	> 20000	
C[C@H](Cn1nc(NS(C)(=O)=O)c2c(Cl)ccc(-n3c([C@H](Cc4cc(F)cc(F)c4)NC(=O)Cn4nc(C(F)F)c5c4C(F)(F)[C@@H]4C[C@H]54)nc4nc(C5CCC(F)(F)CC5)cc(C5CC5)c4c3=O)c21)N1C[C@H](F)C[C@H](F)C1 (atropisomer, axis not shown; (P)) [Example 684, N-[(1S)-1-[(3P)-3-{4-chloro-1-[(2R)-2-[(3R,5S)-3,5-difluoropiperidin-1-yl]propyl]-3-methanesulfonamido-1H-indazol-7-yl}-5-cyclopropyl-7-(4,4-difluorocyclohexyl)-4-oxo-3H,4H-pyrido[2,3-d]pyrimidin-2-yl]-2-(3,5-difluorophenyl)ethyl]-2-[(2S,4R)-9-(difluoromethyl)-5,5-difluoro-7,8-diazatricyclo[4.3.0.0^2,^4]nona-1(6),8-dien-7-yl]acetamide]	10.85	> 20000	
CC(=O)c1cc(C2CCC(F)(F)CC2)nc2nc([C@H](Cc3cc(F)cc(F)c3)NC(=O)Cn3nc(C(F)F)c4c3C(F)(F)[C@@H]3C[C@H]43)n(-c3ccc(Cl)c4c(NS(C)(=O)=O)nn(CCN5CCC(F)(F)CC5)c34)c(=O)c12 (atropisomer, axis not shown; (P)) [Example 746, N-[(1S)-1-[(3P)-5-acetyl-3-{4-chloro-1-[2-(4,4-difluoropiperidin-1-yl)ethyl]-3-methanesulfonamido-1H-indazol-7-yl}-7-(4,4-difluorocyclohexyl)-4-oxo-3H,4H-pyrido[2,3-d]pyrimidin-2-yl]-2-(3,5-difluorophenyl)ethyl]-2-[(2S,4R)-9-(difluoromethyl)-5,5-difluoro-7,8-diazatricyclo[4.3.0.0^2,4]nona-1(6),8-dien-7-yl]acetamide]	11.10	> 20000	
Cc1cc(C2(F)CCC(F)(F)CC2)nc2nc([C@H](Cc3cc(F)cc(F)c3)NC(=O)Cn3nc(C(F)F)c4c3C(F)(F)[C@@H]3C[C@H]43)n(-c3ccc(Cl)c4c(NS(C)(=O)=O)nn(CCN5CCO[C@@H](C(C)C)C5)c34)c(=O)c12 (atropisomer, axis not shown; (P)) [Example 574, N-[(1S)-1-[(3P)-3-(4-chloro-3-methanesulfonamido-1-{2-[(2S)-2-(propan-2-yl)morpholin-4-yl]ethyl}-1H-indazol-7-yl)-5-methyl-4-oxo-7-(1,4,4-trifluorocyclohexyl)-3H,4H-pyrido[2,3-d]pyrimidin-2-yl]-2-(3,5-difluorophenyl)ethyl]-2-[(2S,4R)-9-(difluoromethyl)-5,5-difluoro-7,8-diazatricyclo[4.3.0.0^2,^4]nona-1(6),8-dien-7-yl]acetamide]	10.72	> 20000	
COCCCn1nc(NS(C)(=O)=O)c2c(Cl)ccc(-n3c([C@H](Cc4cc(F)cc(F)c4)NC(=O)Cn4nc(C(F)F)c5c4C(F)(F)[C@@H]4C[C@H]54)nc4nc(C5CCC(F)(F)CC5)cc(NCCNC(C)=O)c4c3=O)c21 (atropisomer, axis not shown; (P)) [Example 432, N-[(1S)-1-[(3P)-3-[4-chloro-3-methanesulfonamido-1-(3-methoxypropyl)-1H-indazol-7-yl]-7-(4,4-difluorocyclohexyl)-5-[(2-acetamidoethyl)amino]-4-oxo-3H,4H-pyrido[2,3-d]pyrimidin-2-yl]-2-(3,5-difluorophenyl)ethyl]-2-[(2S,4R)-9-(difluoromethyl)-5,5-difluoro-7,8-diazatricyclo[4.3.0.0^2,^4]nona-1(6),8-dien-7-yl]acetamide]	9.74	> 20000	
CS(=O)(=O)Nc1nn(CCN2C[C@H](F)C[C@H](F)C2)c2c(-n3c([C@H](Cc4cc(F)cc(F)c4)NC(=O)Cn4nc(C(F)F)c5c4C(F)(F)[C@@H]4C[C@H]54)nc4nc(C5CCC(F)(F)CC5)cc(NCCN5CCOCC5)c4c3=O)ccc(Cl)c12 (atropisomer, axis not shown; (P)) [Example 491, N-[(1S)-1-[(3P)-3-(4-chloro-1-{2-[(3R,5S)-3,5-difluoropiperidin-1-yl]ethyl}-3-methanesulfonamido-1H-indazol-7-yl)-7-(4,4-difluorocyclohexyl)-5-{[2-(morpholin-4-yl)ethyl]amino}-4-oxo-3H,4H-pyrido[2,3-d]pyrimidin-2-yl]-2-(3,5-difluorophenyl)ethyl]-2-[(2S,4R)-9-(difluoromethyl)-5,5-difluoro-7,8-diazatricyclo[4.3.0.0^2,^4]nona-1(6),8-dien-7-yl]acetamide]	11.05	> 20000	
Cc1cc(C2(F)CCC(F)(F)CC2)nc2nc([C@H](Cc3cc(F)cc(F)c3)NC(=O)Cn3nc(C(F)(F)F)c4c3C[C@@H]3C[C@H]43)n(-c3ccc(Cl)c4c(NS(C)(=O)=O)nn(CCN5C[C@H](F)C[C@H](F)C5)c34)c(=O)c12 (atropisomer, axis not shown; (P)) [Example 572, N-[(1S)-1-[(3P)-3-(4-chloro-1-{2-[(3R,5S)-3,5-difluoropiperidin-1-yl]ethyl}-3-methanesulfonamido-1H-indazol-7-yl)-5-methyl-4-oxo-7-(1,4,4-trifluorocyclohexyl)-3H,4H-pyrido[2,3-d]pyrimidin-2-yl]-2-(3,5-difluorophenyl)ethyl]-2-[(2S,4S)-9-(trifluoromethyl)-7,8-diazatricyclo[4.3.0.0^2,^4]nona-1(6),8-dien-7-yl]acetamide]	10.82	> 20000	
